ChEMBL document CHEMBL2176973, “Synthesis and SAR Studies of Fused Oxadiazines as γ-Secretase Modulators for Treatment of Alzheimer's Disease” (ACS Med Chem Lett, 2012)
Active and inactive are the calls of the source. The rule behind the calls is not given here.

Experiments:
[1] = molecular target: T1, Gamma-secretase (Homo sapiens) (UniProt Q96BI3+Q9NZ42+Q8WW43+P49768+Q92542+P49810); assay: Modulation of gamma-secretase expressed in HEK293 cells co-expressing APPsw-lon assessed as reduction of total amyloid beta/amyloid-beta-42 ratio by sandwich immunoassay; assay type: cell-based
Gamma-secretase = assay: Modulation of gamma-secretase expressed in HEK293 cells co-expressing APPsw-lon assessed as reduction of amyloid-beta-42 level by sandwich immunoassay; assay type: cell-based, Homo sapiens
[2] = Plasma concentration in rat at 10 mg/kg, po after 3 hrs; assay type: ADME, organism-based; parameters: dose 10 mg/kg, route oral
[3] = Drug level in rat brain at 10 mg/kg, po after 3 hrs; assay type: ADME, organism-based; parameters: dose 10 mg/kg, route oral; details: read-out: Drug uptake
[4] = Ratio of drug level in brain to plasma rat at 10 mg/kg, po after 6 hrs; assay type: ADME, organism-based; parameters: dose 10 mg/kg, route oral; details: read-out: BPR
[5] = Drug level in rat brain at 10 mg/kg, po after 6 hrs; assay type: ADME, organism-based; parameters: dose 10 mg/kg, route oral; details: read-out: Drug uptake
[6] = AUC (0 to 6 hrs) in rat plasma at 10 mg/kg, po; assay type: ADME, organism-based; parameters: time < 6 hr, dose 10 mg/kg, route oral
Rattus norvegicus [7] = assay: Antialzheimer's activity in rat assessed as reduction of amyloid-beta-42 level in CSF at 10 mg/kg, po after 3 hrs by AlphaLISA amyloid assay; assay type: functional
Rattus norvegicus [8] = species: Rattus norvegicus; assay: Toxicity in rat assessed as biomarker changes; assay type: organism-based; details: in vivo
Rattus norvegicus [9] = species: Rattus norvegicus; assay: Toxicity in rat assessed as Notch-related side effects; assay type: organism-based; details: in vivo
Canis familiaris = species: Canis familiaris; assay: Cardiotoxicity in dog assessed as effect on QTc intervals; assay type: toxicity, organism-based, Canis lupus familiaris; details: in vivo
[10] = Activity at p-glycoprotein
Caco-2 = assay: Permeability across human Caco2 cells; assay type: ADME, cell-based
Rattus norvegicus [11] = assay: Antialzheimer's activity in po dosed rat assessed as reduction of amyloid-beta-42 level in CSF after 3 hrs by AlphaLISA amyloid assay; assay type: functional, organism-based
[12] = molecular target: T1, Gamma-secretase (Homo sapiens); assay: Modulation of gamma-secretase-mediated Notch processing expressed in HEK293 cells co-expressing human Notch1 protein up to 50 uM; assay type: cell-based
[13] = Clearance in rat; assay type: ADME, organism-based; details: in vivo
[14] = Volume of distribution at steady state in rat; assay type: ADME, organism-based; details: in vivo, read-out: Vdss
[15] = Half life in rat; assay type: ADME, organism-based; details: in vivo
[16] = Oral bioavailability in rat; assay type: ADME, organism-based; details: in vivo
hERG (KCNH2) = hERG (KCNH2) (Homo sapiens, UniProt Q12809); assay: Inhibition of human ERG at 10 uM
Chain of hERG (KCNH2) (Q12809 whole entry): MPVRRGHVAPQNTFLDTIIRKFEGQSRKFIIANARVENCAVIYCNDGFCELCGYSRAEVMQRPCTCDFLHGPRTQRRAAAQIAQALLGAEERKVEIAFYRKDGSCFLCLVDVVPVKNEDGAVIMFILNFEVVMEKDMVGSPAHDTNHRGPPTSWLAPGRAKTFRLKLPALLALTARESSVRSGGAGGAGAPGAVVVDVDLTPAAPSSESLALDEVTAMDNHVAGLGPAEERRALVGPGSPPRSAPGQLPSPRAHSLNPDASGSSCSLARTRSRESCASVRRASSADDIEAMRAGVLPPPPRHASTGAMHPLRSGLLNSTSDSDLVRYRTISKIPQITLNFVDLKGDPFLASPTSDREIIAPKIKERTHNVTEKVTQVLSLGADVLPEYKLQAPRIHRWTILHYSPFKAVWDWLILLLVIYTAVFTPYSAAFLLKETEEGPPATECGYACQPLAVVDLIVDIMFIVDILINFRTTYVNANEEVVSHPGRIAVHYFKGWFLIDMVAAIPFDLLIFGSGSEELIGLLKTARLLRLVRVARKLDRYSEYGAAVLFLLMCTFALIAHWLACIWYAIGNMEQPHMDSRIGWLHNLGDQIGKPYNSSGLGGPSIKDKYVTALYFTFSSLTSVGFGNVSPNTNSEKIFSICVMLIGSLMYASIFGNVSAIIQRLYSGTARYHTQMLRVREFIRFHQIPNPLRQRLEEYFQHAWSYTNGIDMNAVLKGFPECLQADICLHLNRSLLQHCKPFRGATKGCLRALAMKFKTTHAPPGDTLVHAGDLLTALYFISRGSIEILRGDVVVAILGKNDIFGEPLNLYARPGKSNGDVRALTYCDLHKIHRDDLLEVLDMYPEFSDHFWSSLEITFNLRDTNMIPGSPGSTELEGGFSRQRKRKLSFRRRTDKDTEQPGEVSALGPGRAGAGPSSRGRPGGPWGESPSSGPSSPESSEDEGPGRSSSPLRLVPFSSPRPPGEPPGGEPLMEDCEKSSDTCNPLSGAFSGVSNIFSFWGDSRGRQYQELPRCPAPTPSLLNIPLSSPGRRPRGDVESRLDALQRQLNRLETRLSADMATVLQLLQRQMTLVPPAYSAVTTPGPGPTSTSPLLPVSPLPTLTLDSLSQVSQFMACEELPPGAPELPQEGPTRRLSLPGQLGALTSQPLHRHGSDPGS

[17] = molecular target: T2, Nuclear receptor subfamily 1 group I member 2 (Homo sapiens, UniProt O75469); assay: Induction of PXR
T2 sequence (O75469 whole entry): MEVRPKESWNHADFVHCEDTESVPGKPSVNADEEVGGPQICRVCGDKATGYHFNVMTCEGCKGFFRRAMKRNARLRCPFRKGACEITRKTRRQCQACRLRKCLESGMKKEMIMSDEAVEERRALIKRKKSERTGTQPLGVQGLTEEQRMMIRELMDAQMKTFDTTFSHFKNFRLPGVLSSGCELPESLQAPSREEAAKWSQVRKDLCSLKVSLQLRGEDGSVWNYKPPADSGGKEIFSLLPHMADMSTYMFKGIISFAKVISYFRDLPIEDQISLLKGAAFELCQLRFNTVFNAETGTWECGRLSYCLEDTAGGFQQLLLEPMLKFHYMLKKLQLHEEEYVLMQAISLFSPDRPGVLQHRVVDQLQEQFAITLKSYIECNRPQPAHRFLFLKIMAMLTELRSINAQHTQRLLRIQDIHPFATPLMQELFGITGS

[18] = Inhibition of CYP450; assay type: ADME

Compound | Ratio [1] | IC50 (Gamma-secretase) [µM] | other results
COc1cc(/C=C2\O[C@H](C)CN3C2=NOC[C@@H]3c2cc(F)cc(F)c2)ccc1-n1cnc(C)c1 | 1220 | 0.016 | 
COc1cc(/C=C2\CCCN3C2=NOC3(C)c2ccc(F)cc2)ccc1-n1cnc(C)c1 (stereo not drawn) | 237 | 0.058 | 
COc1cc(/C=C2\CCCN3C2=NOC[C@@H]3CS(C)(=O)=O)ccc1-n1cnc(C)c1 | 1 | 19 | 
COc1cc(/C=C2\CCCN3C2=NOC[C@@H]3C(C)(C)C)ccc1-n1cnc(C)c1 | 162 | 0.12 | 
COc1cc(/C=C2\CCCN3C2=NOC32CCOc3ccc(F)cc32)ccc1-n1cnc(C)c1 (stereo not drawn) | 223 | 0.058 | 
COc1cc(/C=C2\CCCN3C2=NOC[C@@H]3C2CCOCC2)ccc1-n1cnc(C)c1 | 11 | 1.9 | 
COc1cc(/C=C2\CCCN3C2=NOC[C@@H]3c2ccccc2)ccc1-n1cnc(C)c1 | 210 | 0.087 | concentration at 3 h [2]: 6.2 µM; concentration at 3 h [3]: 2.8 µM; Kp at 6 h [4]: 0.9; concentration at 6 h [5]: 539 ng/g; AUC(0-t) at 6 h [6]: 17.6 µM·h; inhibition in vivo at 10 mg/kg (Rattus norvegicus [7]): 39%
COc1cc(/C=C2\CCCN3C2=NOC[C@@H]3Cc2ccccc2)ccc1-n1cnc(C)c1 | 238 | 0.08 | 
COc1cc(/C=C2\CCCN3CC(CO)ON=C23)ccc1-n1cnc(C)c1 (racemic) | 4 | 5.4 | 
COc1cc(/C=C2\CCCN3CC(c4cccc5ccccc45)ON=C23)ccc1-n1cnc(C)c1 (racemic) | 158 | 0.13 | 
COc1cc(/C=C2\O[C@@H](C)CN3C2=NOC[C@@H]3c2cc(F)cc(F)c2)ccc1-n1cnc(C)c1 | 550 | 0.035 | 
COc1cc(/C=C2\CCCN3C2=NOC[C@@H]3c2cc(F)c(F)c(F)c2)ccc1-n1cnc(C)c1 | 607 | 0.033 | Activity (Rattus norvegicus [8]): Non-toxic; Activity (Rattus norvegicus [9]): Non-toxic; Activity (Canis familiaris): Non-toxic; Activity [10]: inactive; permeability (Caco-2): permeable; inhibition (Rattus norvegicus [11]): Dose-dependent effect; Activity [12]: inactive; clearance [13]: 1.4 mL/min/kg; Vd [14]: 0.4 L/kg; half-life [15]: 3.5 h; bioavailability [16]: 100%; concentration at 3 h [2]: 10.7 µM; inhibition at 10 µM (hERG (KCNH2)): 76%; Kp at 6 h [4]: 0.4; concentration at 6 h [5]: 2910 ng/g; AUC(0-t) at 6 h [6]: 87.4 µM·h; inhibition in vivo at 10 mg/kg (Rattus norvegicus [7]): 62%
COc1cc(/C=C2\O[C@@H](C)CN3C2=NOC[C@@H]3c2cc(F)c(F)c(F)c2)ccc1-n1cnc(C)c1 | 320 | 0.046 | 
COc1cc(/C=C2\CCCN3CC(C(O)c4cc(F)cc(F)c4)ON=C23)ccc1-n1cnc(C)c1 (racemic) | 265 | 0.076 | 
COc1cc(/C=C2\CCCN3C(=O)CON=C23)ccc1-n1cnc(C)c1 | 8 | 2.5 | 
COc1cc(/C=C2\CCCN3C2=NOC[C@@H]3c2cc(F)cc(Cl)c2)ccc1-n1cnc(C)c1 | 507 | 0.039 | concentration at 3 h [2]: 7.2 µM; Kp at 6 h [4]: 1.1; concentration at 6 h [5]: 1340 ng/g; AUC(0-t) at 6 h [6]: 24.6 µM·h; inhibition in vivo at 10 mg/kg (Rattus norvegicus [7]): 62%
COc1cc(/C=C2\CCCN3C2=NOCC3C(O)c2ccc(Cl)cc2)ccc1-n1cnc(C)c1 (stereo not drawn) | 49 | 0.3 | 
COc1cc(/C=C2\O[C@H](C)CN3C2=NOC[C@@H]3c2cc(F)c(F)c(F)c2)ccc1-n1cnc(C)c1 | 1170 | 0.011 | inhibition in vivo at 10 mg/kg (Rattus norvegicus [7]): 60%
COc1cc(/C=C2\CCCN3C2=NO[C@]3(CO)c2ccc(F)cc2)ccc1-n1cnc(C)c1 | 488 | 0.029 | 
CCc1csc(C[C@H]2CON=C3/C(=C/c4ccc(-n5cnc(C)c5)c(OC)c4)CCCN32)n1 | 3 | 6.4 | 
COc1cc(/C=C2\CCCN3C(=O)C(c4cc(F)cc(F)c4)ON=C23)ccc1-n1cnc(C)c1 (racemic) | 18 | 1.1 | 
COc1cc(/C=C2\CCCN3C2=NOC[C@@H]3CNC(=O)c2cccc(Cl)c2)ccc1-n1cnc(C)c1 | 24 | 0.82 | 

Compound | Ratio [1] | IC50 (Gamma-secretase) [µM] | other results
COc1cc(/C=C2\CCCN3CCON=C23)ccc1-n1cnc(C)c1 | 7 | 3.1 | 
COc1cc(/C=C2\CCCN3C2=NOCC3(C)c2ccc(F)cc2)ccc1-n1cnc(C)c1 (racemic) | 69 | 0.23 | 
COc1cc(/C=C2\CCCN3CC(CO[Si](c4ccccc4)(c4ccccc4)C(C)(C)C)ON=C23)ccc1-n1cnc(C)c1 (racemic) | 80 | 0.056 | 
COc1cc(/C=C2\CCCN3C2=NOCC32CCOc3ccc(F)cc32)ccc1-n1cnc(C)c1 (racemic) | 50 | 0.4 | 
COc1cc(/C=C2\CCCN3C2=NOC[C@@H]3CC(=O)N2CCCCC2)ccc1-n1cnc(C)c1 | 13 | 1.5 | 
COc1cc(/C=C2\CCCN3CC(c4cnccn4)ON=C23)ccc1-n1cnc(C)c1 (racemic) | 2 | 9 | 
COc1cc(/C=C2\CCCN3CC(c4nccn4C)ON=C23)ccc1-n1cnc(C)c1 (racemic) | 3 | 6.7 | 
COc1cc(/C=C2\CCCN3CC(COc4ccccc4)ON=C23)ccc1-n1cnc(C)c1 (racemic) | 147 | 0.14 | 
COc1cc(/C=C2\CCCN3C2=NOC3(CO)c2ccc(F)cc2)ccc1-n1cnc(C)c1 (stereo not drawn) | 289 | 0.075 | 
COc1cc(/C=C2\CCCN3C2=NOCC3(CO)c2ccc(F)cc2)ccc1-n1cnc(C)c1 (racemic) | 2 | 13.3 | 
COc1cc(/C=C2\CCCN3C2=NOC[C@@H]3CO)ccc1-n1cnc(C)c1 | 6 | 3.3 | 
COc1cc(/C=C2\CCCN3C2=NOC[C@@H]3CC(C)C)ccc1-n1cnc(C)c1 | 149 | 0.073 | 
COc1cc(/C=C2\CCCN3C2=NOC[C@@H]3C(C)C)ccc1-n1cnc(C)c1 | 34 | 0.53 | 
COc1cc(/C=C2\CCCN3CC(c4ccccc4)ON=C23)ccc1-n1cnc(C)c1 (racemic) | 91 | 0.21 | 
COc1cc(/C=C2\CCCN3C2=NOC[C@@H]3c2ccc(F)cc2)ccc1-n1cnc(C)c1 | 385 | 0.037 | concentration at 3 h [2]: 6.7 µM; concentration at 3 h [3]: 7.7 µM; Kp at 6 h [4]: 0.8; concentration at 6 h [5]: 2850 ng/g; AUC(0-t) at 6 h [6]: 86.5 µM·h; inhibition in vivo at 10 mg/kg (Rattus norvegicus [7]): 53%
COc1cc(/C=C2\CCCN3C2=NOC[C@@H]3CN2CCOCC2)ccc1-n1cnc(C)c1 | 5 | 3.7 | 
COc1cc(/C=C2\CCCN3CC(COCc4ccccc4)ON=C23)ccc1-n1cnc(C)c1 (racemic) | 80 | 0.25 | 
COc1cc(/C=C2\CCCN3CC(Cc4ccccc4)ON=C23)ccc1-n1cnc(C)c1 (racemic) | 241 | 0.083 | 
COc1cc(/C=C2\CCCN3C2=NOC[C@@H]3c2cc(F)c(OC)c(F)c2)ccc1-n1cnc(C)c1 | 459 | 0.044 | concentration at 3 h [2]: 6.3 µM; Kp at 6 h [4]: 1.1; concentration at 6 h [5]: 268 ng/g; AUC(0-t) at 6 h [6]: 22.7 µM·h; inhibition in vivo at 10 mg/kg (Rattus norvegicus [7]): 26%
COc1cc(/C=C2\CCCN3C2=NOC[C@@H]3COCc2ccccc2)ccc1-n1cnc(C)c1 | 120 | 0.1 | 
COc1cc(/C=C2\CCCN3C[C@H](c4cc(F)c(F)c(F)c4)ON=C23)ccc1-n1cnc(C)c1 | 328 | 0.048 | Activity [17]: Not Active; inhibition at 10 µM (hERG (KCNH2)): 83%; inhibition (INH) [18]: Not Active; Kp at 6 h [4]: 1; concentration at 6 h [5]: 1880 ng/g; AUC(0-t) at 6 h [6]: 24.3 µM·h; inhibition in vivo at 10 mg/kg (Rattus norvegicus [7]): 45%
